Experimental data published in patent EP0286578A1, “4,15-Disubstituted 4-androsten-3,17-diones, and process for their preparation” (SCHERING AKTIENGESELLSCHAFT, priority 1987, dated 1988).

Target: T1, Aromatase (Rattus norvegicus, UniProt P22443)
T1 construct: Invantile weibliche Ratten reagieren auf PMSG (Pregnant Mare's Serum Gonadotropin)-Behandlung mit einheitlich erhöhter Steroidsynthese; from tissue; host or cells: living infantile female rats (whole animal; serum estradiol read-out)
T1 sequence (P22443 1-508): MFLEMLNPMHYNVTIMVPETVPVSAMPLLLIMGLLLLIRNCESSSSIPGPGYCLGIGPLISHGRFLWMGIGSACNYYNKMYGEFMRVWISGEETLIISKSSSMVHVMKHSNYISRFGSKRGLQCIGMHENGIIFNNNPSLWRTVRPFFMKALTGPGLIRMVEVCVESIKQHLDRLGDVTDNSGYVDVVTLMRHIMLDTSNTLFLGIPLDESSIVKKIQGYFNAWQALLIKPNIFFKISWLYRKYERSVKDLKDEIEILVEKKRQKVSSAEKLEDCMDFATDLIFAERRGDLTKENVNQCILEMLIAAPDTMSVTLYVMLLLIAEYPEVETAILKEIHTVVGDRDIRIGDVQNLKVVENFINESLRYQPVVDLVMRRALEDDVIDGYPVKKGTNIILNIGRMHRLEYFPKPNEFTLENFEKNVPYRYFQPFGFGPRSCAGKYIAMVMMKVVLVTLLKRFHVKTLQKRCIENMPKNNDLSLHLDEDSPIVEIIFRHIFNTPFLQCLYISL
Experiment: PMSG test in infantile female rats (serum estradiol by radioimmunoassay)
Format: in vivo, Ratte
Details: for Konzentration im Serum Östradiol: infantile Ratten, PMSG-stimulated, 2 x 10 mg/Tier p.o., serum 24 h after last PMSG, mean ± SD, 10 animals per group

CC[C@@H]1CC(=O)[C@@]2(C)CC[C@H]3[C@@H](CCC4=C(O)C(=O)CC[C@@]43C)[C@H]12 [B, 15β-Ethyl-4-hydroxy-4-androsten-3,17-dion]
Konzentration im Serum Östradiol: 2,83 ± 0,29 nMol/l

C[C@]12CCC(=O)C(O)=C1CC[C@@H]1[C@@H]2CC[C@]2(C)C(=O)CC[C@@H]12 [A, 4-Hydroxy-4-androsten-3,17-dion]
Wirksamkeit (PMSG test, oral application, dose range tested 2 x 10 mg, result in words): keine Wirksamkeit
Konzentration im Serum Östradiol: 3,45 ± 0,18 nMol/l

CC[C@@H]1CC(=O)[C@@]2(C)CC[C@H]3[C@@H](CCC4=C(OC(C)=O)C(=O)CC[C@@]43C)[C@H]12 [C, 4-Acetoxy-15β-ethyl-4-androsten-3,17-dion]
Konzentration im Serum Östradiol: 2,34 ± 0,46 nMol/l
